Assay results from patent US20130116277A1, “ALDO-KETO REDUCTASE SUBFAMILY 1C3 (AKR1C3) INHIBITORS” (priority 2007, published 2013).
pEC50, pIC50: −log10 of the molar value. “And” between values parts separate entries of the source, which are not always exact repeats. Equal values may be shown once. Read-outs that look alike come from different tables or passages of the source.

How the values were obtained:
[1] = molecular target: T1, ER-alpha (Homo sapiens, UniProt P03372); test: ER-alpha transactivation (ERE-LUC luciferase) in HEK-293 cells; format: cell-based; details: for Agonist ER-α, % of E2 / pEC50: agonist mode; for pIC50: in combination with estradiol, read-out: Antagonist ER-α; for pEC50: drug alone, read-out: Agonist ER-α;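 for all read-outs here: HEK-293 cells co-transfected with an ER-alpha expression plasmid, an ERE-driven firefly luciferase reporter and a CMV Renilla control, with the firefly signal normalized to Renilla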
T1 construct: expressed in transfected cells; host or cells: HEK-293
T1 sequence (P03372 1-595): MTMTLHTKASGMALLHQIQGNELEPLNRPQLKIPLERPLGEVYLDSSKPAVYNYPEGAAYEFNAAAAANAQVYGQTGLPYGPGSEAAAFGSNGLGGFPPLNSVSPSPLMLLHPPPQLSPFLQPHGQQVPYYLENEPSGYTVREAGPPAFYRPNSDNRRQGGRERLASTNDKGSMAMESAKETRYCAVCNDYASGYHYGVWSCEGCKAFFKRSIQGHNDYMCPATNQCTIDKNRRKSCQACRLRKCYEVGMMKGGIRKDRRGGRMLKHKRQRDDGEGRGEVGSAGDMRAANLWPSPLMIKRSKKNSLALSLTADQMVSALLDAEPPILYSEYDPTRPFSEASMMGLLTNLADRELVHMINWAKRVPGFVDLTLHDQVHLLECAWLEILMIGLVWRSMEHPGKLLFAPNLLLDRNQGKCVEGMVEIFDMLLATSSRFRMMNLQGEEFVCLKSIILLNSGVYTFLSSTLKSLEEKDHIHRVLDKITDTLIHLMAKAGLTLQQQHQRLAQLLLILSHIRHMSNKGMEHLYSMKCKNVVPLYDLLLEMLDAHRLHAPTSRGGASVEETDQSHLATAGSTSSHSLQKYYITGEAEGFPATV

[2] = molecular target: T2, ER-beta (Homo sapiens, UniProt Q92731); test: ER-beta transactivation (ERE-LUC luciferase) in HEK-293 cells; format: cell-based; details: for pEC50: drug alone, read-out: Agonist ER-β; for Antagonist ER-β, % of E2 / pIC50: antagonist mode; for pIC50: in combination with estradiol, read-out: Antagonist ER-β;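 for all read-outs here: HEK-293 cells transiently transfected with an ER-β expression plasmid and ERE-LUC reporter, firefly luciferase read-out normalized to co-transfected Renilla luciferase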
T2 construct: expressed in transfected cells; host or cells: HEK-293

[3] = molecular target: T3, AKR1C3 (Homo sapiens, UniProt P42330); test: cell-based
T3 sequence (P42330 1-323): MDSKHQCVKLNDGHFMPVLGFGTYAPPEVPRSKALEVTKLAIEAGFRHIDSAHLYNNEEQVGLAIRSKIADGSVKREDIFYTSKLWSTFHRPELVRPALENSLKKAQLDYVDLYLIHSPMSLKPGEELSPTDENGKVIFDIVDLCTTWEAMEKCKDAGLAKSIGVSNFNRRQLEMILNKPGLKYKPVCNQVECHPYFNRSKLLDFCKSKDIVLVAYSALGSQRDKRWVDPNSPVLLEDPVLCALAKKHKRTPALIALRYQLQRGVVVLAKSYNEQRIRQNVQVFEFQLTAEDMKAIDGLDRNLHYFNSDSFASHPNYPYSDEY

[4] = molecular target: T3, AKR1C3; test: Purified AKR1C3 enzyme assay, [14C]-A'dione to testosterone, TLC based; format: biochemical; design: GST (N); made in house; host or cells: bacterial culture, IPTG induced (E. coli BL21-DE3 is named only for the crystallography preparation)
Experimental: Perkin Elmer; […] American Radiolabeled Chemicals, St. Louis, Mo.). The reaction was stopped by the addition of 400 μl ethyl acetate, vortexed, and spun for […] at 2000 rpm. The upper layer was transferred to a new tube and air dried. The pellet was resuspended in 25 μl of methanol, spotted on TLC plates and fractionated in TLC chamber with 3:1 chloroform:ethyl acetate. Once the mobile phase reached the top, the plates were dried and exposed to a phosphoimager screen overnight. […] Perkin Elmer) was incubated at 37° C. for 60 min. The reaction was stopped by the addition of 400 μl ethyl acetate, vortexed, and spun for […] at 2000 rpm. The upper layer was transferred to a new tube and air dried. The pellet was resuspended in 25 μl of methanol, spotted on TLC plates and fractionated in TLC chamber with 3:1 chloroform:ethyl acetate. Once the mobile phase reached the top, the plates were dried and exposed to a phosphoimager screen overnight.

[5] = molecular target: ER-β (Homo sapiens, UniProt Q92731); test: ER-β ligand binding domain competitive binding with [3H]Estradiol
[6] = Liver microsome incubation (HLM Phase I and Phase I + II), LC-MS/MS; format: in vitro ADME, human; details: for microsomal CLint: human, human liver microsomes
Experimental: Stock solutions of prespective AKR1C3 inhibitors were prepared in DMSO at 5 mM and were incubated with liver microsomes (0.1 mg/mL). Incubations were conducted at 37° C. in a shaking water bath for 10 minutes (microsomes). Incubation durations were selected based on time course study (microsomes) or published literature (recombinant enzymes). Prepared samples were analyzed using LC-MS/MS.

[7] = 10 μM inhibitor, purified AKR1C3 TLC based enzyme assay, read-out: AKR1C3 inhibition at 10 μM
[8] = read-out: % inhibition from control HSD-5 (10 uM)
[9] = HLM Phase I + II, read-out: HLM Phase I + II CLint
[10] = HLM Phase I, read-out: HLM Phase I CLint

T2 sequence (Q92731 whole entry, species assumed): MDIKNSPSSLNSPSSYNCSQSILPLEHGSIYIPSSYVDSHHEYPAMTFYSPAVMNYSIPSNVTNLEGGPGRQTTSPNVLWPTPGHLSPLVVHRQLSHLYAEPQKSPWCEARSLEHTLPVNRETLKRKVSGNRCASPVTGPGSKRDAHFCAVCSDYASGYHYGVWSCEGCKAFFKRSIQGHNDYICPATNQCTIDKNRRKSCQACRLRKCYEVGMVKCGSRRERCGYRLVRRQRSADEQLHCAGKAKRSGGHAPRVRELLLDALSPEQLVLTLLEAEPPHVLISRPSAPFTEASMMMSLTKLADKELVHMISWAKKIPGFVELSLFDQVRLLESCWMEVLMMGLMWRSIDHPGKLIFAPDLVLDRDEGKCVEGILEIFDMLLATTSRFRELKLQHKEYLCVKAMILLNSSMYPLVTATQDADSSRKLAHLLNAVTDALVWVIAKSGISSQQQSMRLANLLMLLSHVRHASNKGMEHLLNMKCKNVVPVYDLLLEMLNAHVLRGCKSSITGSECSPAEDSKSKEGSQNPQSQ
Sequence of ER-β (Q92731 264-498 limits assumed, species assumed): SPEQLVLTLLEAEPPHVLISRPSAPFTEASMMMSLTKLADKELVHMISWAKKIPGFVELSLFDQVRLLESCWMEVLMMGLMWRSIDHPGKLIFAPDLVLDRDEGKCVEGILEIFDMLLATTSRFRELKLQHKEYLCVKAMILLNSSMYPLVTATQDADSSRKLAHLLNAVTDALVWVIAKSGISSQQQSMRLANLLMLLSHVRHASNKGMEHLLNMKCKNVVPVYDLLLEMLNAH

SMILES	pEC50 ([2]; agonist mode)	pIC50 [3]	inhibition at 10 µM [4, 7] [%]	inhibition at 10 µM [4, 8] [%]	further results
N#Cc1cc(O)cc2c(-c3cc(F)c(F)c(F)c3)cn(-c3ccc(O)cc3)c(=O)c12 [Compound 85, 6-hydroxy-2-(4-hydroxyphenyl)-1-oxo-4-(3,4,5-trifluorophenyl)-1,2-dihydroisoquinoline-8-carbonitrile]	< 5.00	6.85	86	86	Agonist ER-α, % of E2 ([1]; @10k nM): 36.5% of E2 @10k nM; pIC50 ([1]; antagonist mode): < 5.00; Antagonist ER-β, % of E2 ([2]; @1000 nM): 59.7% of E2 @1000 nM
COc1ccc2c(=O)n(-c3ccc(CO)c(OC)c3)cc(-c3ccc(C(F)(F)F)cc3)c2c1 [Compound 25, 2-(4-(hydroxymethyl)-3-methoxyphenyl)-6-methoxy-4-(4-(trifluoromethyl)phenyl)isoquinolin-1(2H)-one]			0		
C/C=C/c1cn(-c2ccc(O)cc2)c(=O)c2c(O)cc(O)cc12 [Compound 15i]	< 5.00			10	Ki [5]: 1.66 nM; pEC50 [1]: < 5.00; pIC50 ([1]; antagonist mode): 5.71 and 5.75; pIC50 [2]: 7.49 and 7.18
O=C(O)c1ccc(-c2cn(-c3ccc(O)cc3)c(=O)c3ccc(O)cc23)cc1 [Compound 43, 4-(6-hydroxy-2-(4-hydroxyphenyl)-1-oxo-1,2-dihydroisoquinolin-4-yl)benzoic acid]	< 5.00		42	42	pEC50 [1]: < 5.00; pIC50 ([1]; antagonist mode): < 5.00; pIC50 [2]: < 5.00
O=c1c2ccc(O)cc2c(-c2ccccc2)cn1-c1ccc(O)cc1 [Compound 15a, 6-hydroxy-2-(4-hydroxyphenyl)-4-phenylisoquinolin-1(2H)-one]	< 5.00	4.79		0	HLM Phase I T-1/2 ([6]; HLM Phase I): 152.8 min; HLM Phase I + II T-1/2 ([6]; HLM Phase I + II): 23.3 min; microsomal CLint [6, 9]: 29.7 µL/min/mg; microsomal CLint [6, 10]: 4.5 µL/min/mg; Ki [5]: 130 nM; pIC50 [2]: 6.04
COc1cc(C=CC(=O)O)cc(OC)c1OC [3,4,5 trimethoxy cinnamic acid, reference compound]		< 5.00			
C[C@@H]1O[C@@H](OC[C@H]2O[C@@H](Oc3c(-c4ccc(O)c(O)c4)oc4cc(O)cc(O)c4c3=O)[C@H](O)[C@@H](O)[C@@H]2O)[C@H](O)[C@H](O)[C@H]1O [Rutin, reference compound]		< 5.00			
NC(=O)c1cccc(-n2cc(-c3ccc(C(F)(F)F)c(F)c3)c3cc(O)ccc3c2=O)c1 [Compound 214, 3-(4-(3-fluoro-4-(trifluoromethyl)phenyl)-6-hydroxy-1-oxoisoquinolin-2(1H)-yl)benzamide]		6.62			
CNS(=O)(=O)c1ccc(-c2cn(-c3ccc(O)cc3)c(=O)c3ccc(O)cc23)cc1 [Compound 36, 4-(6-hydroxy-2-(4-hydroxyphenyl)-1-oxo-1,2-dihydroisoquinolin-4-yl)-N-methylbenzenesulfonamide]	< 5.00		20	20	pEC50 [1]: < 5.00; pIC50 ([1]; antagonist mode): < 5.00
O=C(O)c1cccc(Nc2ccc(C(F)(F)F)cc2)c1 [DKB-476-065]		6.81			
N#Cc1cc(O)cc2c(-c3ccc(C(F)(F)F)c(F)c3)cn(-c3ccc(O)cc3)c(=O)c12 [Compound 102, 4-(3-Fluoro-4-(trifluoromethyl)phenyl)-6-hydroxy-2-(4-hydroxyphenyl)-1-oxo-1,2-dihydroisoquinoline-8-carbonitrile]			10	10	
O=c1c2ccc(O)cc2c(-c2cc(F)c(F)c(F)c2)cn1-c1ccc(O)cc1 [Compound 79, 6-hydroxy-2-(4-hydroxyphenyl)-4-(3,4,5-trifluorophenyl)isoquinolin-1(2H)-one]			44	44	Agonist ER-α, % of E2 ([1]; @1000 nM): 32.6% of E2 @1000 nM; Antagonist ER-α, % of E2 ([1]; antagonist mode, @10k nM): 51% of E2 @10k nM; Agonist ER-β, % of E2 ([2]; agonist mode, @1000 nM): 45.0% of E2 @1000 nM; Antagonist ER-β, % of E2 ([2]; @10k nM): 45.3% of E2 @10k nM
COC(=N)c1cc(O)cc2c(-c3cc(F)c(F)c(F)c3)cn(-c3ccc(O)cc3)c(=O)c12 [Compound 100, Methyl 6-hydroxy-2-(4-hydroxyphenyl)-1-oxo-4-(3,4,5-trifluorophenyl)-1,2-dihydroisoquinoline-8-carbimidate]			20	20	
COc1ccc(-c2cn(-c3ccc(O)cc3)c(=O)c3c(O)cc(O)cc23)cc1 [Compound 15g, 6,8-dihydroxy-2-(4-hydroxyphenyl)-4-(4-methoxyphenyl)isoquinolin-1(2H)-one]	< 5.00	5.34		40	HLM Phase I CLint ([6]; HLM Phase I): 35.8 µL/min/mg; HLM Phase I T-1/2 ([6]; HLM Phase I): 16.5 min and 19.32 min; HLM Phase I + II T-1/2 ([6]; HLM Phase I + II): 1.6 min; microsomal CLint [6, 9]: 422 µL/min/mg; microsomal CLint [6, 10]: 42.1 µL/min/mg; Ki [5]: 2.77 nM; pIC50 [2]: 7.65
CS(=O)(=O)c1ccc(-c2cn(-c3ccc(O)cc3)c(=O)c3ccc(O)cc23)cc1 [Compound 37, 6-hydroxy-2-(4-hydroxyphenyl)-4-(4-(methylsulfonyl)phenyl)isoquinolin-1(2H)-one]	< 5.00		45	45	HLM Phase I T-1/2 (min) ([6]; HLM Phase I): stable; HLM Phase I + II T-1/2 ([6]; HLM Phase I + II): 3.8 min; microsomal CLint [6, 9]: 183 µL/min/mg; pEC50 [1]: < 5.00; pIC50 ([1]; antagonist mode): < 5.00

Continued, in another order:

pEC50 ([2]; agonist mode)	pIC50 [3]	inhibition at 10 µM [4, 7] [%]	inhibition at 10 µM [4, 8] [%]	SMILES	further results
			5	COC(=O)c1ccc(-n2ccc3cc(O)ccc3c2=O)cc1CBr [Compound 104A, methyl 2-(bromomethyl)-4-(6-hydroxy-1-oxoisoquinolin-2(1H)-yl)benzoate]	
		0	0	NC(=O)c1cc(O)cc2c(-c3cc(F)c(F)c(F)c3)cn(-c3ccc(O)cc3)c(=O)c12 [Compound 100A, 6-hydroxy-2-(4-hydroxyphenyl)-1-oxo-4-(3,4,5-trifluorophenyl)-1,2-dihydroisoquinoline-8-carboxamide]	
		0	0	COC(=N)c1cc(O)cc2c(-c3ccc(C(F)(F)F)c(F)c3)cn(-c3ccc(O)cc3)c(=O)c12 [Compound 102A, Methyl 4-(3-fluoro-4-(trifluoromethyl)phenyl)-6-hydroxy-2-(4-hydroxyphenyl)-1-oxo-1,2-dihydroisoquinoline-8-carbimidate]	
		0	0	NC(=O)c1cc(O)cc2c(-c3ccc(C(F)(F)F)c(F)c3)cn(-c3ccc(O)cc3)c(=O)c12 [Compound 102B, 4-(3-fluoro-4-(trifluoromethyl)phenyl)-6-hydroxy-2-(4-hydroxyphenyl)-1-oxo-1,2-dihydroisoquinoline-8-carboxamide]	
